Legend:
[1] = tested on: mouse model with collagen induced arthritis (CIA); assay: Measurement of IgG, IgG1 and IgG2a in the serum of CIA mice by sandwich ELISA; format: in vivo
[2] = tested on: animal model with inflammatory bowel disease (IBD); assay: H&E staining and TNF-α expression of large intestine tissues in IBD animal model; format: in vivo, mouse; conditions: DSS-induced IBD mice, daurinol treated
Excerpt: (§1) For the confirmation of the effect of the daurinol compound of the present invention on the treatment of inflammatory bowel disease, the present inventors first constructed an animal model with induced inflammatory bowel disease. For the experimental model, C57BL/6(H-2kb) mice were used. For the construction of an animal model with induced inflammatory bowel disease, the mice were fed with 3.5% dextran sulfate sodium (DSS) and water for a week, thereby preparing an animal model with induced inflammatory bowel disease. The present inventors divided the experimental animals into a normal control group, a group of an animal model with induced inflammatory bowel disease, and a group of an animal model with induced inflammatory bowel disease treated with daurinol or a TNF-α inhibitor, and the group treated with daurinol was administered orally and intrarectally with daurinol (20 mg/kg) from the 4th day after the induction with the disease. Additionally, for the confirmation of the histological findings of the tissues in the large intestine and the expression of inflammatory cytokines, a hematoxylin and eosin (H&E) staining was performed to examine whether the damage of the tissues in the large intestine was reduced by the daurinol treatment.

[3] = tested on: animal model with inflammatory bowel disease; assay: Expression of inflammatory cytokines in the tissues of the large intestine of IBD model; format: in vivo, mouse; conditions: daurinol treated
Excerpt: as §1, with “disease.” for “disease. Additionally, for the confirmation of the histological findings of the tissues in the large intestine and the expression of inflammatory cytokines, a hematoxylin and eosin (H&E) staining was performed to examine whether the damage of the tissues in the large intestine was reduced by the daurinol treatment.”

[4] = tested on: animal model with induced inflammatory bowel disease; assay: Weight, disease activity index and length of intestine in animal model with inflammatory bowel disease; format: in vivo, mouse
Excerpt: For the confirmation of the effect of the daurinol compound of the present invention on the treatment of inflammatory bowel disease, the present inventors first constructed an animal model with induced inflammatory bowel disease. For the experimental model, C57BL/6(H-2kb) mice were used. For the construction of an animal model with induced inflammatory bowel disease, the mice were fed with 3.5% dextran sulfate sodium (DSS) and water for a week, thereby preparing an animal model with induced inflammatory bowel disease. The present inventors divided the experimental animals into a normal control group, a group of an animal model with induced inflammatory bowel disease, and a group of an animal model with induced inflammatory bowel disease treated with daurinol or a TNF-α inhibitor, and the group treated with daurinol was administered orally and intrarectally with daurinol (20 mg/kg) from the 4th day after the induction with the disease. […] Additionally, one of the features of inflammatory bowel disease is that the damage and shortening of the length of the large intestine are related to the disease activity index. For the analysis of the therapeutic effect of daurinol on the inflammatory bowel disease, the experimental animals were euthanased two weeks after the daurinol treatment, and the length of their intestines were measured.

[5] = tested on: phospho m-TOR; assay: Western blot of phospho m-TOR in CD4+T cells; format: cell-based; conditions: CD4+T cells of normal mouse, daurinol 5 μM, anti-CD3 0.5 μg/mL, 3 days
Description: For the observation of changes in intracellular cell signaling factors treated with daurinol, a western blot analysis was performed. For this purpose, CD4+T cells were isolated from a normal mouse, treated with daurinol (5 μM) in a condition already treated with anti-CD3 antibodies (0.5 μg/mL), cultured for 3 days, and the cells were dissolved and proteins were extracted therefrom. Then, the extracted proteins were subjected to SDS-PAGE electrophoresis, and the proteins were electrically transferred onto a nitrocellulose membrane, subjected to a blocking reaction with 5% skim milk for 1 hour, reacted by attaching primary antibodies to STAT3, STAT3p705, STAT3p727, and phospho m-TOR thereto, reacting again by attaching secondary antibodies to the same, and sensitized onto a Kodak X-ray using enhanced chemilunimoecence (ECL), and thereby the protein expression levels of the genes were analyzed.

[6] = tested on: splenocytes of an animal model with obesity-derived rheumatoid arthritis; assay: IL-17 ELISA in splenocytes of animal model with obesity arthritis; format: cell-based; conditions: daurinol 1 μM and 5 μM, anti-CD3 0.5 μg/mL
Description: The splenocytes of an animal model with obesity-derived rheumatoid arthritis were treated with daurinol (1 μM and 5 μM) and anti-CD3 (0.5 μg/mL), and IL-17, the inflammatory cytokine expressed thereafter, was evaluated via ELISA assay.

[7] = tested on: animal model with graft versus host disease; assay: Therapeutic effect in animal model with graft versus host disease (GVHD); format: in vivo, mouse; conditions: GVHD Balb/c recipient mice, daurinol 20 mg/kg 3 times a week, total of 9 times, vs GVHD control group
Excerpt: In order to confirm whether daurinol can be actually applied to the treatment of a different immune disease, the therapeutic effects of daurinol was examined using an animal model with graft versus host disease. First, for the construction of an animal with graft versus host disease, a recipient mouse, Balb/c(H-2k/d), was exposed to total body irradiation (TBI) (800 cGy). Then, hematopoietic stem cells and splenocytes were isolated from the femur and the tibia of the donor mouse and the hematopoietic stem cells (5×10^6 cells) and the splenocytes (1×10^6 cells) were transplanted to a recipient mouse Balb/c(H-2k/d). After the transplantation, daurinol (20 mg/kg of weight) was injected 3 times a week for a total of 9 times, and in particular, daurinol was used after dissolving in a mixed solvent (DMSO:Crernophor EL:DW=1:1:8). The experiment was performed and analyzed for the experimental groups in which each group consisted of five mice.

[8] = tested on: splenocytes of an animal model with lupus; assay: Th17/Treg activity by flow cytometry in splenocytes of animal model with lupus; format: cell-based; conditions: daurinol 1 μM, anti-CD3 0.5 μg/mL, three days
Description: Finally, for the confirmation of the controlling the activity of Th17/Treg cells, the splenocytes of an animal model with lupus were culture for three days after treating with daurinol (1 μM) and anti-CD3 (0.5 μg/mL), and the activity of Th17/Treg cells being controlled by daurinol was evaluated by flow cytometry.

[9] = arthritis animals, daurinol administration

## COc1cc2c(-c3ccc4c(c3)OCO4)c3c(cc2cc1O)COC3=O [daurinol]
[1]; CIA mouse, three weeks after daurinol injection, 20 mg/kg i.v.
  expression of IgG in the serum: effectively reduced
[1]; [9]
  IgG1 in the serum: significant decrease
  IgG2a in the serum: significant decrease
[2]
  damage of the tissues in the large intestine (H&E staining): decrease in the intestinal tissue damage
  expression of TNF-α in large intestine tissues: significantly inhibits
[3]
  expression of IL-1b in the tissues of the large intestine: significantly inhibit
  expression of IL-6 in the tissues of the large intestine: significantly inhibit
  expression of IL-8 in the tissues of the large intestine: significantly inhibit
  expression of IL-17 in the tissues of the large intestine: significantly inhibit
  expression of TNF-α in the tissues of the large intestine: significantly inhibit
[4]; DSS-induced IBD C57BL/6 mice, daurinol 20 mg/kg orally and intrarectally from 4th day
  disease activity index (DAI): significant decrease
[4]; DSS-induced IBD C57BL/6 mice, daurinol 20 mg/kg orally and intrarectally from 4th day, vs IBD group
  weight: significant improvement in weight
[4]; DSS-induced IBD mice, two weeks after the daurinol treatment, vs IBD group
  length of the intestine: significant increase in the length of the intestine
[5]
  expression of phospho m-TOR: significant decrease
[6]
  expression of IL-17 (ELISA): inhibits the expression of IL-17 in a dose-dependent manner
[7]
  degree of disease: improvement in the degree of disease
  degree of survival: maintenance of the degree of survival for 30 days
[8]
  Th17 activity (flow cytometry): inhibit the Th17 activity
  activity of Foxp3+ Treg cells (flow cytometry): induce the activity of Foxp3+ Treg cells

Source: patent US9526717B2, “Composition for treating immune diseases containing daurinol compound as active ingredient” (THE CATHOLIC UNIVERSITY OF KOREA INDUSTRY-ACADEMIC …, priority 2013, dated 2016)
